Measurements taken from ChEMBL document CHEMBL5291721, “A preclinical secondary pharmacology resource illuminates target-adverse drug reaction associations of marketed drugs” (Nat Commun, 2023).

Experiments:
[1] = target: T1, Corticotropin-releasing factor receptor 1 (Homo sapiens, UniProt P34998)
T1 sequence (P34998 whole entry): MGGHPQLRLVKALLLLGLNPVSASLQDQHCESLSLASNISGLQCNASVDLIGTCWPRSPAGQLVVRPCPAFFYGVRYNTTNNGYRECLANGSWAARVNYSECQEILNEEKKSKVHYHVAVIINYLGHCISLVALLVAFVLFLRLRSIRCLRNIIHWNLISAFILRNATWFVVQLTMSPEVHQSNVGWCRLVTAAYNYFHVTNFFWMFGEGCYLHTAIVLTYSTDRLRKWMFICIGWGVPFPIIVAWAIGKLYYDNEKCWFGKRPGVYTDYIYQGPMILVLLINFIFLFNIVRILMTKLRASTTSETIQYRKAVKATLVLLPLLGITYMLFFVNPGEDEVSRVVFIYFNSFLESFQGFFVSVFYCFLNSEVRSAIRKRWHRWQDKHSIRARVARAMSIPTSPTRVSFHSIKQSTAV

Histamine H1 receptor = Histamine H1 receptor (Homo sapiens, UniProt P35367); format: functional, cell-based
Histamine H2 receptor = Histamine H2 receptor (Homo sapiens, UniProt P25021)
Adenosine receptor A3 = target: T2, Adenosine receptor A3 (Homo sapiens, UniProt P0DMS8)
T2 sequence (P0DMS8 whole entry): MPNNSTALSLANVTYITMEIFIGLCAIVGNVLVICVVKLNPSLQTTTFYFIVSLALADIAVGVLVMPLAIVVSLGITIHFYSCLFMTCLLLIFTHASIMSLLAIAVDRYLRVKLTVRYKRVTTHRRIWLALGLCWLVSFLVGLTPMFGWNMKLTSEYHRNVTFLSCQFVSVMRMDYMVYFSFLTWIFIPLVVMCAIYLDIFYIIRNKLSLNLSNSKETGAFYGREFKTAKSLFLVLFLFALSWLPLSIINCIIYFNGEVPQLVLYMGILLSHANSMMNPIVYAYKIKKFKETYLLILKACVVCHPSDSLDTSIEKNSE

[2] = target: T3, Alpha-1A adrenergic receptor (Homo sapiens, UniProt P35348); format: functional, cell-based
T3 sequence (P35348 whole entry): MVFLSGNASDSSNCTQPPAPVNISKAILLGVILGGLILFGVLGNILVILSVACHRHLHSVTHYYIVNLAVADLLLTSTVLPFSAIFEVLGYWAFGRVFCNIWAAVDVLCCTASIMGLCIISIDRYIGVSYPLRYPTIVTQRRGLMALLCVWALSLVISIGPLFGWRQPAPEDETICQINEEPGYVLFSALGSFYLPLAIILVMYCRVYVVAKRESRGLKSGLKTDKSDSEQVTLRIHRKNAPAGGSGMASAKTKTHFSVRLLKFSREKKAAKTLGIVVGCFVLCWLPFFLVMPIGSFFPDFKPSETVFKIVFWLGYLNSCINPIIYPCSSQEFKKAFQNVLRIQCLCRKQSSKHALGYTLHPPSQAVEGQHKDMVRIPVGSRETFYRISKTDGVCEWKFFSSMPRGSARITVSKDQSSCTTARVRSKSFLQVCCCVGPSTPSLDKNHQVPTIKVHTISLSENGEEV

[3] = target: T4, Alpha-2A adrenergic receptor (Homo sapiens, UniProt P08913)
T4 sequence (P08913 whole entry): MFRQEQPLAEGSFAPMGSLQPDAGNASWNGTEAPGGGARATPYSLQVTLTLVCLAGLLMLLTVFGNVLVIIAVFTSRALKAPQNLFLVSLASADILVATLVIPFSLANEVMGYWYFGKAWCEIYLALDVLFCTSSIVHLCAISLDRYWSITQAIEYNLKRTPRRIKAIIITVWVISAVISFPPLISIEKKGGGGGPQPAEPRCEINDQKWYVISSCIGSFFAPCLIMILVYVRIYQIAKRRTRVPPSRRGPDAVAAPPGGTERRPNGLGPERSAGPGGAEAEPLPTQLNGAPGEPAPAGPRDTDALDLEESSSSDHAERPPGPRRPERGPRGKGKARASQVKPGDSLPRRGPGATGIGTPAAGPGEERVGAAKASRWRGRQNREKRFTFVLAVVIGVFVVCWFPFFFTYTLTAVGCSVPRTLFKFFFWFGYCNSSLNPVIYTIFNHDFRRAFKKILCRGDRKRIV

D(3) dopamine receptor = D(3) dopamine receptor (Homo sapiens, UniProt P35462)
Estrogen receptor = target: T5, Estrogen receptor (Homo sapiens, UniProt P03372)
T5 sequence (P03372 whole entry): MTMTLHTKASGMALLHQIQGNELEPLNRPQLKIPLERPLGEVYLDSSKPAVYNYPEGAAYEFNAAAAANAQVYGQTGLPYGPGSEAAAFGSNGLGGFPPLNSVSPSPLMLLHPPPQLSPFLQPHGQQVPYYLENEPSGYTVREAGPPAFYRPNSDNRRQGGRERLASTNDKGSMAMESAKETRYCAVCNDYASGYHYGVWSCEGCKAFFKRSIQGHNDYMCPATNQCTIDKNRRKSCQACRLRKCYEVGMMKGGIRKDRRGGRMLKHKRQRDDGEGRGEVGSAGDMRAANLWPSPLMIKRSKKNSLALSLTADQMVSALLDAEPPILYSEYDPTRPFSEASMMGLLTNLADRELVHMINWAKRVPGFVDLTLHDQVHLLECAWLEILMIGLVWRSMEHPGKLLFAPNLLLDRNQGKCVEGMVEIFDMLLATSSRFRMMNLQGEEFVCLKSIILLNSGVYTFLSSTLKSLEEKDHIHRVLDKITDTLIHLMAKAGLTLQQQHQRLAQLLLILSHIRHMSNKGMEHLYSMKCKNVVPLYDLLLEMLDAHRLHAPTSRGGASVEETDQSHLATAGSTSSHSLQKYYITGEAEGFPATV

[4] = target: Sodium-dependent noradrenaline transporter (Homo sapiens, UniProt P23975)
Also: assay procedure not described here.

Chain of Histamine H2 receptor (P25021 whole entry): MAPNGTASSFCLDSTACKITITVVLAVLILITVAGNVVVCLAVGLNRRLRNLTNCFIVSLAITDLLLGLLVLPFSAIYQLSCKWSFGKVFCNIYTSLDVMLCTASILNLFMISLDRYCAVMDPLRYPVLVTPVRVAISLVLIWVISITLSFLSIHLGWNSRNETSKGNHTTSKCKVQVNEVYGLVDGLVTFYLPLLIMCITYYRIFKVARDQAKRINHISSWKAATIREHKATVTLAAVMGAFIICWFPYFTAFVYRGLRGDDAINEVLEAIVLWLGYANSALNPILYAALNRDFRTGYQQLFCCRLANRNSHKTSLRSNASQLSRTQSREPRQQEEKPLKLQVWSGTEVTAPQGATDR
Chain of Sodium-dependent noradrenaline transporter (P23975 whole entry): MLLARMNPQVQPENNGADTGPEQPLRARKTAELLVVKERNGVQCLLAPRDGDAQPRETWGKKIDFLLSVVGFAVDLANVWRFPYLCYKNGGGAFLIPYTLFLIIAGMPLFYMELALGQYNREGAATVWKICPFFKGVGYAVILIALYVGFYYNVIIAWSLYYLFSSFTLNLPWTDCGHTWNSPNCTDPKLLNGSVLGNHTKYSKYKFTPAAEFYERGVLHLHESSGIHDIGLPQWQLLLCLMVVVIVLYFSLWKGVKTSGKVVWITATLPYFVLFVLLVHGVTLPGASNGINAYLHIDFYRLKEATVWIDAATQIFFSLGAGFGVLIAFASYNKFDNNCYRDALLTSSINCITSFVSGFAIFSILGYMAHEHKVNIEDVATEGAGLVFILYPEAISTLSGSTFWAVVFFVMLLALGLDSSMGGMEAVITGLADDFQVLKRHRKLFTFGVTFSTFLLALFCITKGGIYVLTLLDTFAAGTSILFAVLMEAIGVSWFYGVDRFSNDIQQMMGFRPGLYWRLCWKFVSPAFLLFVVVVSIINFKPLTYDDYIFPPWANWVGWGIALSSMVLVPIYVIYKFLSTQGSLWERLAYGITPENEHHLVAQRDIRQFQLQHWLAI
Chain of Histamine H1 receptor (P35367 whole entry): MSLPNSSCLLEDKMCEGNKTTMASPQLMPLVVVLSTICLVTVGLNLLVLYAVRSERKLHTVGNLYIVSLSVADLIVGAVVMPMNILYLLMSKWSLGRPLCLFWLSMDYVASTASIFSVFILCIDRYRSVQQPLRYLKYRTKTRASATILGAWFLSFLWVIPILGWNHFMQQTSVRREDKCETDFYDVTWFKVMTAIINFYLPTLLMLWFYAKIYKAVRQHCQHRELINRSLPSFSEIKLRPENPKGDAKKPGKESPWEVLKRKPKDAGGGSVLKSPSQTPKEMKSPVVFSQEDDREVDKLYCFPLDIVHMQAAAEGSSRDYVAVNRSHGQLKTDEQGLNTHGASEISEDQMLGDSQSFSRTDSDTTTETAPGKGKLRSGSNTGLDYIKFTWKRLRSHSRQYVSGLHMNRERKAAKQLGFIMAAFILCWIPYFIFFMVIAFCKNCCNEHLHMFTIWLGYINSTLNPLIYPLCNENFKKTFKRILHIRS
Chain of D(3) dopamine receptor (P35462 whole entry): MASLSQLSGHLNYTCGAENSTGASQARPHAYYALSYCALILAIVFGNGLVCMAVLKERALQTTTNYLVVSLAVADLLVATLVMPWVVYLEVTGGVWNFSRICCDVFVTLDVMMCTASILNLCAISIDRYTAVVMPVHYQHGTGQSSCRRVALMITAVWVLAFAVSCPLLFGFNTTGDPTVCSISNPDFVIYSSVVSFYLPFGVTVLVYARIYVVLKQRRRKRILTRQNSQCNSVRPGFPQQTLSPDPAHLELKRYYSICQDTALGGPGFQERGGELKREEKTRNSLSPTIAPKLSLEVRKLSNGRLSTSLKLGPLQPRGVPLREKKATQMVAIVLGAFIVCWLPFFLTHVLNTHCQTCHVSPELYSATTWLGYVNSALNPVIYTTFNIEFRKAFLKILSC

Compound: CC(=O)OCC(=O)[C@@]1(O)[C@H](C)C[C@H]2[C@@H]3CCC4=CC(=O)C=C[C@]4(C)[C@@]3(F)[C@@H](O)C[C@@]21C [DEXAMETHASONE ACETATE]
- AC50 [1]: > 30 µM

Compound: CCN1CCCC1CNC(=O)c1cc(S(=O)(=O)CC)c(N)cc1OC (stereo not drawn) [AMISULPRIDE]
- AC50 (Histamine H1 receptor): > 30 µM

Compound: Cn1cnc2c(F)c(Nc3ccc(Br)cc3Cl)c(C(=O)NOCCO)cc21 [SELUMETINIB]
- AC50 (Histamine H2 receptor): > 10 µM

Compound: Cn1c(=O)cc(N2CCC[C@@H](N)C2)n(Cc2ccccc2C#N)c1=O [ALOGLIPTIN]
- AC50 [1]: > 30 µM
- AC50 (Histamine H2 receptor): > 10 µM

Compound: OCc1cc(C(O)CNCCCCCCOCCCCc2ccccc2)ccc1O (stereo not drawn) [SALMETEROL]
- AC50 (Histamine H1 receptor): > 30 µM

Compound: Nc1c2ccccc2nc2ccccc12 [AMINACRINE]
- AC50 (Adenosine receptor A3): 9.62 µM
- AC50 [2]: > 30 µM
- AC50 [3]: 16.9 µM
- AC50 (D(3) dopamine receptor): > 30 µM
- AC50 (Estrogen receptor): > 30 µM
- AC50 [4]: 2.95 µM

Compound: O=C(O)CCCCC1CCSS1 (stereo not drawn) [LIPOIC ACID, ALPHA]
- AC50 (Adenosine receptor A3): > 30 µM
- AC50 [2]: > 30 µM
- AC50 [3]: > 30 µM
- AC50 (D(3) dopamine receptor): > 30 µM
- AC50 (Estrogen receptor): > 10 µM
- AC50 [4]: > 30 µM
